Reference: patent US8685999B2, “Beta carboline sulphonylurea derivatives as EP4 receptor antagonists” (Merck Sharp & Dohme Corp., priority 2008, dated 2014)
pIC50: −log10 of the molar value.

Biological target: T1, EP4 (Homo sapiens, UniProt P35408)
T1 construct: expressed in transfected cells; membranes prepared by differential centrifugation
Assay: Prostanoid receptor binding assay (radioligand displacement binding assay)
Conditions: column marked X when IC50 < 1; read-out: IC50 (nm) X < 1
Procedure: Prostanoid receptor cDNAs corresponding to full length coding sequences are subcloned into the appropriate sites of mammalian expression vectors and transfected into HEK 293(ebna) cells. HEK 293(ebna) cells expressing the individual cDNAs are grown under selection and individual colonies are isolated after 2-3 weeks of growth using the cloning ring method and subsequently expanded into clonal cell lines.
Transfected HEK 293(ebna) cells are maintained in culture, harvested and membranes are prepared by differential centrifugation, following lysis of the cells in the presence of protease inhibitors, for use in receptor binding assays. Prostanoid receptor binding assays (for DP1, DP2 (CRTH2), EP1, EP2, EP3-III, EP4, FP, IP, and TP) are performed in 10 mM MES/KOH (pH 6.0) (EPs, FP and TP) or 10 mM HEPES/KOH (pH 7.4) (DPs and IP), containing 1 mM EDTA, 2.5-30 mM divalent cation and the appropriate radio-ligand. Synthetic compounds are added in DMSO which is kept constant at 1% (v/v) in all incubations. The reaction is initiated by addition of membrane protein. Non-specific binding is determined in the presence of 10 μM of the corresponding non-radioactive prostanoid. Incubations are conducted for 60-120 min at room temperature or 30° C. and terminated by rapid filtration. Specific binding is calculated by subtracting non specific binding from total binding. The residual specific binding at each ligand concentration is calculated and expressed as a function of ligand concentration in order to construct sigmoidal concentration-response curves. The binding affinity of the compounds is determined by calculating the equilibrium inhibition constant (Ki) from the equation Ki=InPt/1+[radio-ligand]/Kd where Kd is the equilibrium dissociation constant for the radio-ligand:receptor interaction and InPt is the inflection point of the dose-response curves.
Abramovitz, M. et al., Biochem, Biophys. Acta, 2000, 1483, pp. 285.

T1 sequence (P35408 whole entry): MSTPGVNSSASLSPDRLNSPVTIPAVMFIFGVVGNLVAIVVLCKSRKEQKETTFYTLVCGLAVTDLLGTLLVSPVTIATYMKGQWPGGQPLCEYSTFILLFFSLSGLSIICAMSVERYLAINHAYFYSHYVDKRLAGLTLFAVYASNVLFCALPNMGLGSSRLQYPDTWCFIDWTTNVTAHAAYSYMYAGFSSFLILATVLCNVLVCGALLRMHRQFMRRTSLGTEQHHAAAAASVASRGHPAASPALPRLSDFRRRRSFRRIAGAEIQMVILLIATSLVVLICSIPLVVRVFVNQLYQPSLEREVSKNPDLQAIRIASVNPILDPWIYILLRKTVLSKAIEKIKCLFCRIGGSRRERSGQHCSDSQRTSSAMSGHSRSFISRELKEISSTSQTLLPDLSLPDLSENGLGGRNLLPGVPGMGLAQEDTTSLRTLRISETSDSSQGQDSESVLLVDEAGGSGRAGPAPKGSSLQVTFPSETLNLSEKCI

Structure (SMILES) | pIC50
COC(=O)c1ccc2c(c1)c1c(n2-c2ccc(CC3(NC(=O)NS(=O)(=O)c4ccc(Cl)cc4)CC3)cc2)C(=O)N(C)CC1 [Example 3-2, methyl 9-[4-({1-[({[(4-chlorophenyl)sulfonyl]amino}carbonyl)amino]cyclopropyl}methyl)phenyl]-2-methyl-1-oxo-2,3,4,9-tetrahydro-1H-beta-carboline-6-carboxylate] | > 9.00
CN1CCc2c(n(-c3ccc(CC4(NC(=O)NS(=O)(=O)c5ccc(Cl)cc5)CC4)cc3)c3ccc(C(=O)O)cc23)C1=O [Example 3-3, 9-[4-({1-[({[(4-chlorophenyl)sulfonyl]amino}carbonyl)amino]cyclopropyl}methyl)phenyl]-2-methyl-1-oxo-2,3,4,9-tetrahydro-1H-beta-carboline-6-carboxylic acid] | > 9.00
CN1CCc2c(n(-c3ccc(CC4(NC(=O)NS(=O)(=O)c5ccc(Cl)cc5)CC4)cc3)c3ccc(-c4ccn[nH]4)cc23)C1=O [Example 3-4, 4-chloro-N-{[(1-{4-[2-methyl-1-oxo-6-(1H-pyrazol-5-yl)-1,2,3,4-tetrahydro-9H-beta-carbolin-9-yl]benzyl}cyclopropyl)amino]carbonyl}benzenesulfonamide] | > 9.00
CN1CCc2c(n(-c3ccc(CC4(NC(=O)NS(=O)(=O)c5ccc(Cl)cc5)CC4)cc3)c3ccc(-c4nnc(-c5ccccc5)o4)cc23)C1=O [Example 3-5, 4-chloro-N-{[(1-{4-[2-methyl-1-oxo-6-(5-phenyl-1,3,4-oxadiazol-2-yl)-1,2,3,4-tetrahydro-9H-beta-carbolin-9-yl]benzyl}cyclopropyl)amino]carbonyl}benzenesulfonamide] | > 9.00
